The target in the test is T1, human PRMT1 (Homo sapiens, UniProt Q99873).
T1 construct: GST-tagged PRMT1; made in house; host or cells: High Five insect cells (baculovirus, pFastBacI)
As to the kind of experiment: PRMT1 biochemical assay (3H-SAM Flashplate, peptide substrate). The settings on record: read-out: PRMT1_ IC50. The procedure, abridged:
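FLAG-tagged full-length human PRMT1 (0.5 nM, GST-tagged, insect-cell expressed) preincubated 30 min at RT with compound, then biotinylated histone H4 36-50 peptide (20 nM) plus 200 nM 3H-SAM and 1.5 uM SAM in Bicine pH 7.6, 2% DMSO. 3H-methylated peptide captured on streptavidin Flashplate; IC50 from 3/4-parameter fit.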

T1 sequence (Q99873 with tags, fused parts or gaps): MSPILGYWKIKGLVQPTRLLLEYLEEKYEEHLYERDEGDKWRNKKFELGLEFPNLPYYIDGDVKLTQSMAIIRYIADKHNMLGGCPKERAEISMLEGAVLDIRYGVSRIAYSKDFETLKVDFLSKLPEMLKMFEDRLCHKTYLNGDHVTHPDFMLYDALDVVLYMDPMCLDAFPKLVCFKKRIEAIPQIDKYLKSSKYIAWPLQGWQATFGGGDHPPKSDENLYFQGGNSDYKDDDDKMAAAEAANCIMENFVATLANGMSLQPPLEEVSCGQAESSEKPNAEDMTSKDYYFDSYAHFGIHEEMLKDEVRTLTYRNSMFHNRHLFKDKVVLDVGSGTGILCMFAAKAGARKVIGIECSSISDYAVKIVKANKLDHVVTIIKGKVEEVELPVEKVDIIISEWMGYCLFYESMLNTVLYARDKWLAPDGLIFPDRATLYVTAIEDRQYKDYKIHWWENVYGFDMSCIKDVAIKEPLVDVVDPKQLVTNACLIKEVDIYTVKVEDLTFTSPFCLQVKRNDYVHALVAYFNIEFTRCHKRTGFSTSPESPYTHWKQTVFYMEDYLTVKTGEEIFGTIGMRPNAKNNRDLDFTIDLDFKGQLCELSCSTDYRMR

As a reminder, the IC50 is the point on the concentration scale where inhibition reaches its midpoint. Regarding `CNCCN(C)Cc1ccc(-c2cc(C(=O)NCc3c(C)cc(C)[nH]c3=O)c(C)c3nn(C4CCCC4)cc23)cc1` [Compound 370], the 50% inhibitory concentration (IC50) turned out to be 418 nM.
For the compound `Cc1cc(C)c(CNC(=O)c2cc(-c3cccc(CNCCN)c3)nc3c2cnn3C(C)C)c(=O)[nH]1` [Compound 365], the half-inhibitory concentration (IC50) is 7490 nM.
With `CNCCN(C)Cc1cccc(-c2cc(C(=O)NCCC(=O)NCc3c(C)cc(C)[nH]c3=O)c3cnn(C(C)C)c3n2)c1` [Compound 384], the half-inhibitory concentration (IC50) was 220 nM.
With `Cc1cc(C)c(CNC(=O)c2cc(-c3cccc(CN(C)CCN(C)C)c3)nc3c2cnn3C(C)C)c(=O)[nH]1` [Compound 361], the concentration for half-maximal inhibition (IC50) turned out to be 4270 nM.
With `Cc1cc(C)c(CNC(=O)c2cc(CNCCN(C)C)cc3c2cnn3C2CCCC2)c(=O)[nH]1` [Compound 371] the figure was 11800 nM; with `CNCCN(C)Cc1cccc(-c2cc(C(=O)NCc3c(C)cc(C)[nH]c3=O)c(C)c3[nH]ncc23)c1` [Compound 372], 59.6 nM; with `COc1nc(C)cc(C)c1CNC(=O)c1cc(-c2cccc(CN(C)CCN(C)C)c2)nc2c1cnn2C(C)C` [Compound 386], 1610 nM.
The figure for `COc1nc(C)cc(C)c1CNC(=O)c1cc(-c2cccc(CNCCN)c2)nc2c1cnn2C(C)C` [Compound 391] is 1220 nM; for `CNCCN(C)Cc1cccc(-c2cc(C(=O)NCc3c(C)cc(C)[nH]c3=O)c3cnn(C(C)C)c3n2)c1` [Compound 368] it is 86.6 nM.
With `Cc1cc(C)c(CNC(=O)c2cc(-c3cccc(CNCCN)c3)cc3[nH]ncc23)c(=O)[nH]1` [Compound 366], the IC50 is 2400 nM.
As for `CNCCN(C)Cc1cccc(-c2cc(C(=O)NCCCCC(=O)NCc3c(C)cc(C)[nH]c3=O)c3cnn(C(C)C)c3n2)c1` [Compound 385], the IC50 is 232 nM.
For the compound `Cc1cc(C)c(CNC(=O)c2cc(-c3ccc(CNCCN(C)C)cc3)nc3c2cnn3C(C)C)c(=O)[nH]1` [Compound 359], the IC50 was 4660 nM.
For `CNCCN(C)Cc1cccc(-c2cc(C(=O)NCCCC(=O)NCc3c(C)cc(C)[nH]c3=O)c3cnn(C(C)C)c3n2)c1` [Compound 383], the IC50 came to 212 nM.
Consider `Cc1cc(C)c(CNC(=O)c2cncc(-c3ccc(CNCCN)cc3)c2)c(=O)[nH]1` [Compound 379], for which the concentration for half-maximal inhibition (IC50) was 335 nM.
`CNCCN(C)Cc1cccc(-c2nc(NCc3nccs3)c3cnn(C4CC4)c3n2)c1` [Compound 2]: the half-maximal inhibitory concentration (IC50) is 21.7 nM.
The figure for `CNCCN(C)Cc1ccc(-c2cc(C(=O)NCc3c(C)cc(C)[nH]c3=O)c(C)c3n[nH]cc23)cc1` [Compound 362] is 104 nM; for `CNCCN(C)Cc1ccc(-c2cncc(C(=O)NCc3c(C)cc(C)[nH]c3=O)c2)cc1` [Compound 373] it is 64.7 nM.
The figure for `Cc1cc(C)c(CNC(=O)c2cc(-c3cccc(CN(C)CCN)c3)nc3c2cnn3C(C)C)c(=O)[nH]1` [Compound 360] is 254 nM; for `Cc1cc(C)c(CNC(=O)c2cncc(-c3ccc(CN(C)CCN)cc3)c2)c(=O)[nH]1` [Compound 374] it is 73.1 nM.
For `CNCCN(C)Cc1cccc(-c2cc(C(=O)NCc3c(C)cc(C)[nH]c3=O)c3cnn(C(C)C)c3c2)c1` [Compound 367], the IC50 worked out at 183 nM.
With `Cc1cc(C)c(CNC(=O)c2cncc(-c3ccc(CN(C)CCN(C)C)cc3)c2)c(=O)[nH]1` [Compound 378] the figure was 297 nM; with `CNCCN(C)Cc1cccc(-c2cc(C(=O)NCCCCCC(=O)NCc3c(C)cc(C)[nH]c3=O)c3cnn(C(C)C)c3n2)c1` [Compound 382], 177 nM.

The record behind these values is patent US20170280720A1, “ARGININE […] INHIBITORS AND USES THEREOF” (EPIZYME, INC., priority 2014, published 2017).
